US9795632B2, “Cancer treatments and compositions for use thereof” (priority 2012, dated 2017)

Columns and labels:
[1] = test system: capillary circulation of the skin; assay: Laser Doppler circulation study in five human subjects (Example 7); assay type: in vivo; settings: positive control formulation containing 0.1% methyl nicotinate
Excerpt: This example illustrates delivery of nitric oxide formulations to five human subjects, using procedures and formulations similar to those discussed in Example 5. Each person served as their own control for the testing. A Moor Instruments Laser Doppler was used to determine circulation. […] The formulations used produce positive, almost immediate results when applied to the skin which, in these studies, was manifested by vasodilatation of the cutaneous vascular system. For each subject, the following creams were applied: a negative control formulation (containing no NO), 0.010 gram of a 10,000 ppm NO formulation, 0.020 gram of a 10,000 ppm NO formulation, and a positive control formulation containing 0.1% methyl nicotinate. The formulations were prepared using procedures similar to those discussed in Example 1.

[2] = test system: micro-capillary blood flow to skin; assay: Laser Doppler microcirculation study in three human female subjects, 10,000 ppm NO (Example 5); assay type: in vivo; settings: applied to the skin at 1/10% in alcohol
Procedure: This example illustrates delivery of nitric oxide formulations similar to those discussed herein in humans. In these studies, laser Doppler studies were performed on three human female subjects. […] The formulations used produce positive, almost immediate results when applied to the skin which, in these studies, was manifested by vasodilatation of the cutaneous vascular system.
While nitric oxide has many physiological effects, the purpose of these studies was to measure physiological effects that would be relatively easy to determine, and which would be noninvasive. […] Nitric oxide is capable of […] the capillary bed, and thus, laser Doppler was selected.
The formulation used in these studies contained nitric oxide dispersed in a lipid matrix. […] This provided a stable measuring device as determined by multiple normal evaluations of the capillary blood flow without treatment of nitric oxide.
A known positive control, methyl nicotinate, was applied to the skin at a concentration of 1/10% in alcohol. […] The laser Doppler device accurately measured these parameters.
In these studies, the participants were healthy females aged 30 to 55 years. They were in good health as determined by the medical history and were not taking any prescription medications. All study participants read and signed the informed consent statement prior to any study procedures being performed. […]

Structure (SMILES): COC(=O)c1cccnc1 [methyl nicotinate]
- Vasodilatation (laser Doppler) [1]: vasodilatation was observed
- Vasodilator response of positive control [2]: rapid response typical of the vasodilator
